According to patent publication US20240174669A1, “CRYSTALLINE FORMS OF A PARP1 INHIBITOR” (XinThera, Inc., priority 2022, published 2024):
Converted amounts (≈) assume the structure as drawn. Where two headings read alike, the source gives them in different places.

Tests used:
Type in all cases: physicochemical
[1] = Solubility in 0.5% MC and 0.5% MC pH 3 citrate buffer; conditions: for solubility: 0.5% MC (400 cPs), aqueous with cosolvent or surfactant or cyclodextrin, thermodynamic from solid
Protocol: Solubility of freebase Form II was first measured in 0.5% MC (400 cPs) and 0.5% MC (400 cPs) pH 3 citrate buffer. About 5 mg of Form II (Lot#1) was stirred in 1 mL of media at RT for ˜2 hours. The suspension was filtered, with filtrates analyzed by HPLC and remaining solids tested by XRPD. […] Therefore, 0.5% MC pH 3 buffer was selected for suspension formulation stability study.

[2] = Solubility in bio-relevant media, water and pH buffers (HPLC of filtrate, XRPD of filter cake); conditions: for solubility at 0.5 h / solubility at 2 h / solubility at 24 h / solubility / solubility at 4 h / solubility at 8 h: thermodynamic from solid; for solubility at 0.5 h: read-out: Solubility (mg/mL) 0.5 h; for solubility at 2 h: read-out: Solubility (mg/mL) 2 h; for solubility at 24 h: read-out: Solubility (mg/mL) 24 h; for Solubility (mg/mL) 0.5 h / Solubility (mg/mL) 2 h / Solubility (mg/mL) 4 h / Solubility (mg/mL) 8 h: listed as Freebase Form II (Lot #2); for solubility at 4 h: read-out: Solubility (mg/mL) 4 h; for solubility at 8 h: read-out: Solubility (mg/mL) 8 h
Protocol: About 15 mg of freebase Form II was weighed into sample vials, and then 3 mL of each media was added to make suspensions, respectively. […] Duplicated samples were prepared for each media.
HPLC analysis was performed with an Agilent HPLC 1260 series instrument.

[3] = Suspension formulation stability in 0.5% MC pH 3 buffer
Protocol: About 9 mg of free base Form II (Lot#1) was added into 0.3 mL of 0.5% MC pH 3 buffer, and stirred at RT for 30 min to make a suspension with 30 mg/mL drug loading (Day 0 sample). The suspension samples in vials, prepared at the same time, were kept at RT for 3 or 7 days. At each time point, the whole suspension in a vial was dissolved in 8.7 mL water/ACN (1:1, v/v) and then was analyzed by HPLC. Sedimentation of suspension was checked by visual observation, and the solids in another vial were tested by PLM and XRPD.

[4] = 0.5% MC pH 3 buffer (100 mM citrate), RT, ~2 hours
[5] = 0.5% MC pH 3 citrate buffer, up to 7 days

## CNC(=O)c1ccc(N2CCN(Cc3cnc4cc(C5CC5)c(=O)[nH]c4c3)CC2)cn1 [Freebase Form II, 5-(4-((7-cyclopropyl-6-oxo-5,6-dihydro-1,5-naphthyridin-3-yl)methyl)piperazin-1-yl)-N-methylpicolinamide]
[1]; 0.5% MC, RT, ~2 hours
  solubility: < 10 µg/mL
[1]; RT, ~2 hours
  solubility: 6 µg/mL (≈ 14.3 µM)
[1]; [4]
  Filtrate Purity 254 nm: 99.25%
  XRPD of remaining solids: Unchanged
[1]; both media: 0.5% MC and 0.5% MC pH 3 citrate buffer
  form change (XRPD): No form change was observed
[2]; FaSSIF, 37 °C, pH 6.45, fassif, FaSSIF, initial pH 6.45, 37° C., 800 rpm, 0.5 h
  solubility at 0.5 h: 0.016 mg/mL (≈ 38.2 µM)
[2]; FaSSIF, 37 °C, pH 6.45, fassif, FaSSIF, initial pH 6.45, 37° C., 800 rpm, 2 h
  solubility at 2 h: 0.025 mg/mL (≈ 59.7 µM)
[2]; FaSSIF, 37 °C, pH 6.45, fassif, FaSSIF, initial pH 6.45, 37° C., 800 rpm
  solubility at 24 h: 0.028 mg/mL (≈ 66.9 µM)
[2]; FaSSIF, 37 °C
  solubility: ~20 µg/mL (≈ 47.8 µM)
[2]; FaSSIF, initial pH 6.50, 0.5 h
  Solubility (mg/mL) 0.5 h: 0.015 mg/mL (≈ 35.8 µM)
[2]; FaSSIF, initial pH 6.50, 2 h
  Solubility (mg/mL) 2 h: 0.015 mg/mL (≈ 35.8 µM)
[2]; FaSSIF, initial pH 6.50, 4 h
  Solubility (mg/mL) 4 h: 0.017 mg/mL (≈ 40.6 µM)
[2]; FaSSIF, initial pH 6.50, 8 h
  Solubility (mg/mL) 8 h: 0.016 mg/mL (≈ 38.2 µM)
[2]; FaSSIF, pH 6.5, fassif, FaSSIF, initial pH 6.50, 0.5 h
  solubility at 0.5 h: 0.016 mg/mL (≈ 38.2 µM)
[2]; FaSSIF, pH 6.5, fassif, FaSSIF, initial pH 6.50, 2 h
  solubility at 2 h: 0.017 mg/mL (≈ 40.6 µM)
[2]; FaSSIF, pH 6.5, fassif, FaSSIF, initial pH 6.50, 4 h
  solubility at 4 h: 0.021 mg/mL (≈ 50.2 µM)
[2]; FaSSIF, pH 6.5, fassif, FaSSIF, initial pH 6.50, 8 h
  solubility at 8 h: 0.023 mg/mL (≈ 55 µM)
[2]; FeSSIF, 37 °C, pH 4.89, fessif, FeSSIF, initial pH 4.89, 37° C., 800 rpm, 0.5 h
  solubility at 0.5 h: 0.087 mg/mL (≈ 208 µM)
[2]; FeSSIF, 37 °C, pH 4.89, fessif, FeSSIF, initial pH 4.89, 37° C., 800 rpm, 2 h
  solubility at 2 h: 0.101 mg/mL (≈ 241 µM)
[2]; FeSSIF, 37 °C, pH 4.89, fessif, FeSSIF, initial pH 4.89, 37° C., 800 rpm
  solubility at 24 h: 0.12 mg/mL (≈ 287 µM)
[2]; FeSSIF, 37 °C, pH 4.98, fessif
  solubility: ~100 µg/mL (≈ 239 µM)
[2]; FeSSIF, 37 °C, pH 4.98, fessif, FeSSIF, initial pH 4.98, 8 h
  solubility at 8 h: 0.105 mg/mL (≈ 251 µM)
[2]; FeSSIF, initial pH 4.98, 0.5 h
  Solubility (mg/mL) 0.5 h: 0.087 mg/mL (≈ 208 µM)
[2]; FeSSIF, initial pH 4.98, 2 h
  Solubility (mg/mL) 2 h: 0.089 mg/mL (≈ 213 µM)
[2]; FeSSIF, initial pH 4.98, 4 h
  Solubility (mg/mL) 4 h: 0.096 mg/mL (≈ 229 µM)
[2]; FeSSIF, initial pH 4.98, 8 h
  Solubility (mg/mL) 8 h: 0.101 mg/mL (≈ 241 µM)
[2]; FeSSIF, pH 4.98, fessif, FeSSIF, initial pH 4.98, 0.5 h
  solubility at 0.5 h: 0.085 mg/mL (≈ 203 µM)
[2]; FeSSIF, pH 4.98, fessif, FeSSIF, initial pH 4.98, 2 h
  solubility at 2 h: 0.09 mg/mL (≈ 215 µM)
[2]; FeSSIF, pH 4.98, fessif, FeSSIF, initial pH 4.98, 4 h
  solubility at 4 h: 0.097 mg/mL (≈ 232 µM)
[2]; SGF, 37 °C, pH 1.27, simulated gastric fluid, SGF, initial pH 1.27, 37° C., 800 rpm, 0.5 h
  solubility at 0.5 h: > 5 mg/mL
[2]; SGF, 37 °C, pH 1.27, simulated gastric fluid, SGF, initial pH 1.27, 37° C., 800 rpm, 2 h
  solubility at 2 h: > 5 mg/mL
[2]; SGF, 37 °C, pH 1.27, simulated gastric fluid, SGF, initial pH 1.27, 37° C., 800 rpm
  solubility at 24 h: > 5 mg/mL
[2]; SGF, 37 °C, simulated gastric fluid
  solubility: > 5000 µg/mL
[2]; all media, up to 24 hours
  crystalline form during solubility test (XRPD of filter cake): remained unchanged
[2]; pH 5.0 buffer, 37 °C, pH 5, aqueous buffer
  solubility: ~50 µg/mL (≈ 119 µM)
[2]; pH 5.0 buffer, 37 °C, pH 5, aqueous buffer, pH 5.0 buffer, initial pH 4.94, 37° C., 800 rpm, 0.5 h
  solubility at 0.5 h: 0.045 mg/mL (≈ 108 µM)
[2]; pH 5.0 buffer, 37 °C, pH 5, aqueous buffer, pH 5.0 buffer, initial pH 4.94, 37° C., 800 rpm, 2 h
  solubility at 2 h: 0.05 mg/mL (≈ 119 µM)
[2]; pH 5.0 buffer, 37 °C, pH 5, aqueous buffer, pH 5.0 buffer, initial pH 4.94, 37° C., 800 rpm
  solubility at 24 h: 0.061 mg/mL (≈ 146 µM)
[2]; pH 6.5 buffer, 37 °C, pH 6.5, aqueous buffer
  solubility: ~10 µg/mL (≈ 23.9 µM)
[2]; pH 6.5 buffer, 37 °C, pH 6.5, aqueous buffer, pH 6.5 buffer, initial pH 6.43, 37° C., 800 rpm, 0.5 h
  solubility at 0.5 h: 0.007 mg/mL (≈ 16.7 µM)
[2]; pH 6.5 buffer, 37 °C, pH 6.5, aqueous buffer, pH 6.5 buffer, initial pH 6.43, 37° C., 800 rpm, 2 h
  solubility at 2 h: 0.008 mg/mL (≈ 19.1 µM)
[2]; pH 6.5 buffer, 37 °C, pH 6.5, aqueous buffer, pH 6.5 buffer, initial pH 6.43, 37° C., 800 rpm
  solubility at 24 h: 0.01 mg/mL (≈ 23.9 µM)
[2]; water, 37 °C, pH 4.18, water, Water, initial pH 4.18, 37° C., 800 rpm, 0.5 h
  solubility at 0.5 h: 0.007 mg/mL (≈ 16.7 µM)
[2]; water, 37 °C, pH 4.18, water, Water, initial pH 4.18, 37° C., 800 rpm, 2 h
  solubility at 2 h: 0.008 mg/mL (≈ 19.1 µM)
[2]; water, 37 °C, pH 4.18, water, Water, initial pH 4.18, 37° C., 800 rpm
  solubility at 24 h: 0.01 mg/mL (≈ 23.9 µM)
[2]; water, 37 °C
  solubility: ~10 µg/mL (≈ 23.9 µM)
[3]; [5]
  crystalline form in suspension: remained unchanged
  purity change in suspension: no purity decrease was observed
[3]; initial, before suspension
  Purity (area %, 220 nm) Initial: 99.25 area %
[3]; kept at RT for 3 or 7 days, homogeneous again after swirling 1 min
  sedimentation of suspension (visual observation): Sedimentation was observed
[3]; suspension in 0.5% MC pH 3 buffer (100 mM citrate), 30 mg/mL, RT, Day 0
  Purity (area %, 220 nm) Day 0: 99.30 area %
[3]; suspension in 0.5% MC pH 3 buffer (100 mM citrate), 30 mg/mL, RT, Day 3
  Purity (area %, 220 nm) Day 3: 99.28 area %
[3]; suspension in 0.5% MC pH 3 buffer (100 mM citrate), 30 mg/mL, RT, Day 7
  Purity (area %, 220 nm) Day 7: 99.26 area %
